# Assay results published in BigSolDB 2.1.
smiles,measurement,setting,value
CCOc1ccc(C2NC(=O)NC=C2C(=O)c2cc(OC)c(OC)c(OC)c2)cc1 (stereo not given),solubility (mole fraction),"in DMSO, 298.15 K",0.00547
same,solubility (mole fraction),"in DMSO, 303.15 K",0.0065
same,solubility (mole fraction),"in DMSO, 308.15 K",0.00754
same,solubility (mole fraction),"in DMSO, 313.15 K",0.00879
same,solubility (mole fraction),"in DMSO, 318.15 K",0.00996
same,solubility (mole fraction),"in PEG-400, 298.15 K",0.00521
same,solubility (mole fraction),"in PEG-400, 303.15 K",0.00675
same,solubility (mole fraction),"in PEG-400, 308.15 K",0.00831
same,solubility (mole fraction),"in PEG-400, 313.15 K",0.0103
same,solubility (mole fraction),"in PEG-400, 318.15 K",0.0121
same,solubility (mole fraction),"in ethanol, 298.15 K",0.000294
same,solubility (mole fraction),"in ethanol, 303.15 K",0.000402
same,solubility (mole fraction),"in ethanol, 308.15 K",0.000516
same,solubility (mole fraction),"in ethanol, 313.15 K",0.000654
same,solubility (mole fraction),"in ethanol, 318.15 K",0.000802
same,solubility (mole fraction),"in ethyl acetate, 298.15 K",0.00143
same,solubility (mole fraction),"in ethyl acetate, 303.15 K",0.00174
same,solubility (mole fraction),"in ethyl acetate, 308.15 K",0.00222
same,solubility (mole fraction),"in ethyl acetate, 313.15 K",0.00286
same,solubility (mole fraction),"in ethyl acetate, 318.15 K",0.00345
same,solubility (mole fraction),"in ethylene glycol, 298.15 K",0.000397
same,solubility (mole fraction),"in ethylene glycol, 303.15 K",0.000543
same,solubility (mole fraction),"in ethylene glycol, 308.15 K",0.000697
same,solubility (mole fraction),"in ethylene glycol, 313.15 K",0.000866
same,solubility (mole fraction),"in ethylene glycol, 318.15 K",0.00107
same,solubility (mole fraction),"in isopropanol, 298.15 K",0.000469
same,solubility (mole fraction),"in isopropanol, 303.15 K",0.000619
same,solubility (mole fraction),"in isopropanol, 308.15 K",0.000772
same,solubility (mole fraction),"in isopropanol, 313.15 K",0.000958
same,solubility (mole fraction),"in isopropanol, 318.15 K",0.00113
same,solubility (mole fraction),"in methanol, 298.15 K",0.000252
same,solubility (mole fraction),"in methanol, 303.15 K",0.000328
same,solubility (mole fraction),"in methanol, 308.15 K",0.000407
same,solubility (mole fraction),"in methanol, 313.15 K",0.00049
same,solubility (mole fraction),"in methanol, 318.15 K",0.000577
same,solubility (mole fraction),"in n-butanol, 298.15 K",0.000672
same,solubility (mole fraction),"in n-butanol, 303.15 K",0.000859
same,solubility (mole fraction),"in n-butanol, 308.15 K",0.00105
same,solubility (mole fraction),"in n-butanol, 313.15 K",0.00125
same,solubility (mole fraction),"in n-butanol, 318.15 K",0.00146
same,solubility (mole fraction),"in propylene glycol, 298.15 K",0.000504
same,solubility (mole fraction),"in propylene glycol, 303.15 K",0.000682
same,solubility (mole fraction),"in propylene glycol, 308.15 K",0.00087
same,solubility (mole fraction),"in propylene glycol, 313.15 K",0.00107
same,solubility (mole fraction),"in propylene glycol, 318.15 K",0.00133
same,solubility (mole fraction),"in sec-butanol, 298.15 K",0.00067
same,solubility (mole fraction),"in sec-butanol, 303.15 K",0.000855
same,solubility (mole fraction),"in sec-butanol, 308.15 K",0.00104
same,solubility (mole fraction),"in sec-butanol, 313.15 K",0.00124
same,solubility (mole fraction),"in sec-butanol, 318.15 K",0.00145
same,solubility (mole fraction),"in transcutol, 298.15 K",0.00301
same,solubility (mole fraction),"in transcutol, 303.15 K",0.00367
same,solubility (mole fraction),"in transcutol, 308.15 K",0.00441
same,solubility (mole fraction),"in transcutol, 313.15 K",0.00519
same,solubility (mole fraction),"in transcutol, 318.15 K",0.00624
same,solubility (mole fraction),"in water, 298.15 K",7.87e-06
same,solubility (mole fraction),"in water, 303.15 K",1.09e-05
same,solubility (mole fraction),"in water, 308.15 K",1.51e-05
same,solubility (mole fraction),"in water, 313.15 K",2.02e-05
same,solubility (mole fraction),"in water, 318.15 K",2.54e-05
